Laboratory results as given in US9795687B2, “Modularly assembled small molecules for the treatment of myotonic dystrophy type 1” (The Scripps Research Institute, priority 2013, dated 2017).

Columns and labels:
r(GC)8 = test: SPR binding kinetics to r(GC)8
Experimental: The binding of 2H-K4NMe to various RNAs including r(CUG)12, r(CAG)12, r(AU)12 and r(GC)δ was studied by surface plasmon resonance (SPR) spectrometry. […] In summary, 2H-K4NMe is selective for r(CUG)12 by ˜30-100-fold over the other RNAs studied (Table 2). In general, it has a faster association rate (kon) and a slower dissociation rate (koff) when binding to r(CUG)12 compared to the other RNAs.
On rates, off rates and Kobs values were measured using a ForteBio OctetRed spectrophotometer and Streptavidin SA dip-and-read biosensors (ForteBio). Sensors were pre-equilibrated in 1X Kinetics Buffer (ForteBio) prior to beginning measurements. 5′-Biotinylated r(CUG)12 was folded by heating in 1X Kinetics Buffer at 60° C. for 5 min followed by slow cooling to room temperature on the bench top. Measurements were completed by incubating sensors sequentially in 200 μL of: 1X Kinetics Buffer, 540 nM 5′-biotinylated RNA, 1X Kinetics Buffer, compound of interest or MBNL1 (varying concentrations; seven 1:2 dilutions in 1X Kinetics Buffer), and finally 1X Kinetics Buffer. Data were fit using ForteBio's Data Analysis 7.0 software. MBNL1 and II (monomer) data were fit using a 1:1 model. This model fits one analyte in solution binding to one binding site on the surface. 2H-K4NMe and 2H-4 data were fit using a 2:1 heterogeneous ligand model. This model fits the binding of one analyte in solution to two different binding sites on the surface. Kinetic parameters are calculated for both interactions.

[1] = system: C2C12 cell line expressing firefly luciferase mRNA with r(CUG)800 in the 3′ UTR; test: DM1 translational defect, luciferase model system; format: cell-based; details: as little as 1 μM compound
Excerpt: Next, compounds were studied for improving translational defects associated with DM1 (due to poor nucleocytoplasmic transport of r(CUG)^exp-containing transcripts).^33-40 In particular, a cellular model system was employed in which the C2C12 cell line stably expresses r(CUG)800 embedded in the 3′ UTR of firefly luciferase.^18 Akin to DMPK mRNA in DM1-affected cells, the expanded repeat impairs nucleocytoplasmic transport of luciferase mRNA and thus decreases luciferase expression. Compounds that bind r(CUG)^exp and disrupt the r(CUG)^exp-MBNL1 complex may stimulate cytoplasmic transport of the luciferase mRNA and thus translation of luciferase (FIG. 4C).
C2C12 cell lines expressing 800 or 0 CTG repeats in the 3′ UTR of luciferase were grown as monolayers in 96-well plates in growth medium (1X DMEM, 10% FBS, 1X Glutamax, (Invitrogen) and 1X penicillin/streptomycin (MP Biomedicals LLC)). After 24 h, the compound of interest was added in 50 μL of growth medium. Cells were treated with compound for 24 h. Luciferase activity was determined as previously described.^18

r(CUG)12-MBNL1 complex = test: TR-FRET assay, disruption of the r(CUG)12-MBNL1 complex; format: biochemical; details: among third generation compounds (2H-K4NPr derivatives)
Experimental: As mentioned above, DM1 is caused by sequestration of MBNL1 by r(CUG)^exp.^28, 32-37 Therefore, in vitro potency was determined by measuring displacement of MBNL1 from a r(CUG)12-MBNL1 complex using a time-resolved FRET (TR-FRET) assay.^15, 47 Each dimeric compound disrupts the r(CUG)12-MBNL1 complex with IC50's between ˜3 and ˜300 μM (FIG. 3). […] This may be due to the presence of imino protons that can favorably interact with the phosphodiester backbone of RNA (FIG. 2).
Initial in vitro activity of modularly assembled compounds was assessed by disruption of the r(CUG)^exp-MBNL1 complex using a previously reported TR-FRET assay.^15, 47 The ratio of fluorescence intensity of 545 and 665 nm in the presence and absence of compound were used to calculate percent inhibition.
The resulting curves were fit to the following equation to determine IC50 values:
[formula] where y is the ratio of fluorescence intensities at 545 nm and 665 nm (F545/F665), x is the concentration of small molecule, B is the F545/F665 ratio reflective of the maximum amount of FRET observed (absence of small molecule); A is the F545/F665 ratio reflective of the minimum amount of FRET observed (absence of RNA, protein, and small molecule; only antibodies are present); and the IC50 is the concentration of small molecule where half of the protein is displaced by small molecule. Improvement of DM1-Associated Splicing Defects in a DM1 Cell Culture Model Using RT-PCR.

[2] = r(GC)8, two component binding isotherm

Selectivity for r(CUG)12 (r(GC)8; over r(GC)8): 107
kon (1) (r(GC)8; r(GC)8): 58600 M⁻¹ s⁻¹
kon (2) (r(GC)8; r(GC)8): 24800 M⁻¹ s⁻¹
Kd (r(GC)8; r(GC)8, read-out: Kobs (1)): 1400 nM
koff (1) (r(GC)8; [2]): 0.0822 s⁻¹
koff (2) (r(GC)8; [2]): 0.105 s⁻¹
SMILES: C[C@@H](C(=O)N(C)[C@@H](C)C(=O)N(C)[C@@H](C)C(=O)N(C)[C@@H](C)C(=O)N[C@@H](CCCCNC(=O)CCCOc1cccc(-c2nc3cc(-c4nc5cc(N6CCN(C)CC6)ccc5[nH]4)ccc3[nH]2)c1)C(N)=O)N(C)C(=O)CCCOc1cccc(-c2nc3ccc(-c4nc5cc(N6CCN(C)CC6)ccc5[nH]4)cc3[nH]2)c1 [Compound 2H-K4NMe]
improvement of DM1 translational defect (luciferase activity), dose response [1]: Significant activity
in vitro potency rank in TR-FRET assay (r(CUG)12-MBNL1 complex): most potent
